The results in this text go back to US9790253B2, “OSW-1 analogs and conjugates, and uses thereof” (priority 2011, dated 2017).

Data set [1] addresses T1, OSBP1-myc-his (Homo sapiens, UniProt P22059).
T1 construct: made in house; host or cells: HEK-293T (transient transfection; S100 lysate, not purified)
T1 sequence (P22059 1-807): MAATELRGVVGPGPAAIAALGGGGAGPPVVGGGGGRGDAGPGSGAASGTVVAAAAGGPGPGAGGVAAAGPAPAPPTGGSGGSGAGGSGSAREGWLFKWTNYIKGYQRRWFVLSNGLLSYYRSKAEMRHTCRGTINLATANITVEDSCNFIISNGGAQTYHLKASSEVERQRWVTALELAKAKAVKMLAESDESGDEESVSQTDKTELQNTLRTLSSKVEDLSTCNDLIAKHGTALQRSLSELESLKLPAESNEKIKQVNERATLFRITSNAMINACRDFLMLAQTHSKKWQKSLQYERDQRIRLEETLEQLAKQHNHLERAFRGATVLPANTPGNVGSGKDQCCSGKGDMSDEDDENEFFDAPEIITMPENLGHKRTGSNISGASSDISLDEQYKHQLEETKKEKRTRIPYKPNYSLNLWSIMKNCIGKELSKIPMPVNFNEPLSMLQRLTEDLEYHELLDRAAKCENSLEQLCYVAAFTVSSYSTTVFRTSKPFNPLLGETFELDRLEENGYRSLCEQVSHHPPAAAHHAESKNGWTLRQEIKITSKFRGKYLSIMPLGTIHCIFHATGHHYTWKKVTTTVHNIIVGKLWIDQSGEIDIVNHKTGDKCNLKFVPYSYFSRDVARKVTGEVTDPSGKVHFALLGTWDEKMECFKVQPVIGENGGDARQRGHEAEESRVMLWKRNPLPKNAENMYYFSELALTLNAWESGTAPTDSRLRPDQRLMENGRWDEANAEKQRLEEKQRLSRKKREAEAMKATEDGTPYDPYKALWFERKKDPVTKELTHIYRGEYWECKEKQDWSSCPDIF
Kind of data set: [3H]-25-hydroxycholesterol charcoal-dextran binding assay with OSBP1-myc-his. The source says:
[^3H]-25-Hydroxycholesterol charcoal-dextran binding assay.
(§1) Methods are described above in the General Methods section.

In data set [2] the test system is A549 cells. Kind of data set: cells. Particulars: for GI50: Homo sapiens, A549, 48 h, read-out: GI50 (nM) 48 h. The class given is cell-based, human. The source says:
Methods are essentially as described above in the General Methods section in connection with assays using HCT-116 cells.

The target in data set [3] is T2, ORP4L-myc-his (Homo sapiens, UniProt Q969R2).
T2 sequence (Q969R2 1-916): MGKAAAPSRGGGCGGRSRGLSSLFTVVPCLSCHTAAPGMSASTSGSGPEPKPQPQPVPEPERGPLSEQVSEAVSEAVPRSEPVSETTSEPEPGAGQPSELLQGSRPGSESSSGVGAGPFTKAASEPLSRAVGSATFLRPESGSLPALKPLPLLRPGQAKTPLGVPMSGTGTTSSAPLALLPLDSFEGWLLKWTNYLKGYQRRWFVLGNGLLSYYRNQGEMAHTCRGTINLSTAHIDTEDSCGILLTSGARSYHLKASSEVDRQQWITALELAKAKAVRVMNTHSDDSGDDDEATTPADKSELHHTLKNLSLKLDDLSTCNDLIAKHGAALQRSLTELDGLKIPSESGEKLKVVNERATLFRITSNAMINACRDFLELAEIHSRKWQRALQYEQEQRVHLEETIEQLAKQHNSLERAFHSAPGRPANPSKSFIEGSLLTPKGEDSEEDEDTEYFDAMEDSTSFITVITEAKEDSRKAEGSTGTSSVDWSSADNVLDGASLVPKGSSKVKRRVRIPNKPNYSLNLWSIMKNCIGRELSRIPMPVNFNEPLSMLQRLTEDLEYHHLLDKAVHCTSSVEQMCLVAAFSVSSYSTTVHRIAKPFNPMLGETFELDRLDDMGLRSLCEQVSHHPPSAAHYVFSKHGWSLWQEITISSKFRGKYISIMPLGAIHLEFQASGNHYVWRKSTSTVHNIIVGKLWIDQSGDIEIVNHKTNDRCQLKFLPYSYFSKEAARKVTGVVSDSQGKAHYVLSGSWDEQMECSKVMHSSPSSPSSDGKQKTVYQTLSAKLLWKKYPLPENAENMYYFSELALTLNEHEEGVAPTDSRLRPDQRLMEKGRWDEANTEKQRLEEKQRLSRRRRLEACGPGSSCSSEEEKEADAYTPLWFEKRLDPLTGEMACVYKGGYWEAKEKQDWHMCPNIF
Kind of data set: [3H]-25-hydroxycholesterol charcoal-dextran binding assay with ORP4L-myc-his.
Protocol: [^3H]-25-Hydroxycholesterol charcoal-dextran binding assay. […] These vectors were transfected into HEK-293T cells using Lipofectamine™2000 (Invitrogen), and 48 h after transfection, on-plate lysis of the transfected cells with the M-Per®/HALT™ with EDTA (ThermoScientific) reagent was performed, followed by ultracentrifugation at 100,000 g. The S100 lysate was diluted to 0.2 mg/mL, aliquoted and stored at −80° C. until use. The HEK-293T OSBP1-, ORP4L- or lacZ-myc-his lysate was incubated with [^3H]-25-hydroxycholesterol at 4° C. for 16 h in 96-well plates. After incubation, charcoal/dextran (C/D) was added to the wells for 30 min of shaking at RT, followed by centrifugation for 15 min at 1900 g to pellet the C/D. The C/D-cleared lysate was added to MicroScint™-20 (PerkinElmer) scintillation fluid, and the remaining protein-bound radiolabel was quantified using a TopCount™ scintillation counter. [^3H]-25-hydroxycholesterol binding curves and competition curves were repeated at least three times.
Lysates were thawed on ice, with brief periods of hand warming. Both the ^3H-25-OHC direct binding assays and the ^3H-25-OHC competition binding assays were set up similarly, with a large stock of binding assay lysate being prepared, then 73.5 μL of the binding assay mixture dispensed using a multi-channel pipettor into “V”-shaped 96-well plates. For the ^3H-25-OHC direct binding assay, 1.5 μL of ^3H-25-OHC and ^3H-25-OHC/40×25-OHC added to the wells in dilutions in 100% ethanol. For the ^3H-25-OHC competition binding assays, ^3H-25-OHC was added to the large stock of binding assay lysate to a final concentration of 20 nM. This ^3H-25-OHC-containing binding lysate was then dispensed using a multi-channel pipettor into the 96-well plates. Then, 1.5 μL of a serial dilution of the inhibitors in either 100% ethanol (25-OHC) or DMSO (the ORPphilins) was added to each well.
The binding lysate used in each well of the 96-well plate consisted of 60 μL of 0.2 mg/mL S100 lysate, 7.5 μL 20% PVA, and 5.6 μL 2M KCl. For ^3H-25-OHC binding curve experiments, 0.4 μL of buffer was then added (total volume per well: 73.5 μL). For the ^3H-25-OHC inhibition competition assays, 0.11 μL of 13.2 μM ^3H-25-OHC and 0.29 μL binding buffer was added for each well (total volume per well: 73.5 μL).
Binding assays were incubated, standing, for 16 h at 4° C. Then 30 μL of the rt C/D solution was multichannel pipetted into new “V’ shaped 96-well plates, and 60 μL of the binding lysate mixture was then added. The plates were briefly, lightly vortexed (˜10 sec), 10 and then rocked at 250 rpm for 30 min at rt. The plates were then centrifuged at 1900 g for 15 min at 4° C. in Microplate Carriers (Sorvall cat. #75006449S) in a Sorvall Legend RT centrifuge. Carefully so as to not disturb the C/D pellet, 30 μL of the supernatant was transferred to 170 μL of Microscint-20 in the OptiPlates. The plates were sealed with the TopSealA-Films, and vigorously vortexed (max speed, >1 min). ^3H-25-OHC detection in the wells was then performed using a TopCount Scintillation detector, counting each well for 2 min. Data was graphed and analyzed using GraphPad PrismS, using non-linear regression to determine KD and K1 values.
Binding experiments were performed at 4° C. for 16 h. Unbound sterol was removed using dextran-coated charcoal, and protein-bound sterol left in the supernatant was quantified by scintillation counting. Ki-values were determined as mean±s.d. from at least three independent experiments.

The test system of data set [4] is HCT-116 p21^−/− cells. Kind of data set: cells. The settings on record: for GI50: Homo sapiens, HCT-116, 48 h, read-out: GI50 (nM) 48 h p21^−/−. As for the experimental part: (§2) Cell viability assay. Cells were plated into 96-well plates in 75 μL of media. After 24 h, a time-zero plate was produced by adding 25 μL of media and 20 μL of CellTiter-Blue® (Promega) to the wells, followed by incubation at 37° C. for 90 min. Fluorescence (544 nm excitation; 590 nm emission) was detected using a SPECTRAmax® Gemini XS to establish cell viability at time of dosing. Then, compounds were serially diluted in media and delivered to the cells as 4× solutions in 25 μL of media. At either 48 h or 72 h, CellTiter-Blue® was added and the fluorescence was recorded as described above.
(§3) Tasdemir et al. (2002) J Nat Prod 65:210-4. GI50-values of the compounds were determined in HCT-116 p21^+/+ (wt) and p21^−/− cells after 48 h using a resazurin redox dye to measure cell viability.
as §1

Data set [5] has as its system HCT-116 p21^+/+ (wt) cells. Kind of data set: Growth inhibition (cell viability assay) of HCT-116 p21+/+ cells. The settings on record: for GI50: Homo sapiens. As to the method:
as §2, §3, §1

In data set [6] the target is T3, OSBP1 protein levels in HCT-116 cells (Homo sapiens, UniProt P22059).
T3 construct: endogenous in cells; host or cells: HCT-116
T3 sequence (P22059 1-807): T1 sequence (P22059 1-807)
Kind of data set: OSBP1 protein levels by western blotting. The format is cell-based. Particulars: for block of OSBP1 degradation by 1 and 2: co-administered with 1 and 2; for effect on OSBP1 levels, compound alone: concentration not given. As for the experimental part: A possible explanation for this observation was that treatment with 1 and 2 caused a decrease in OSBP1 levels. Treatment of HCT-116 cells with vehicle (DMSO) or 25-OHC (10 μM) had no effect on OSBP1 levels, as assessed by western blotting (FIG. 6A). However, treatment with 1 or 2 induced a dramatic, time-dependent reduction of OSBP1 levels (FIG. 6A). For example, 50 nM of 1 or 10 nM of 2 caused an approximately 75% reduction in OSBP1 protein levels at 24 h in HCT-116 cells (FIG. 6A), with a similar effect recorded in A549 cells. […] OSBP1 levels were determined using both an antibody recognizing the far N-terminus of OSBP1 (FIG. 6) and also an antibody recognizing the C-terminus of OSBP1.
One possible explanation for the reduction in OSBP1 levels upon treatment with 1 and 2 was proteasome-dependent degradation. To determine whether degradation of OSBP1 was proteasome dependent, proteasome inhibitors MG-132 or lactacystin were co-administered with 1 and 2. […] Similar results were obtained in A549 cells.
A general note: A western blot detects proteins with antibodies after separation by electrophoresis.

In data set [7] the test system is HCT-116 cells. The data set is described as follows: Growth inhibition with 25-OHC co-administration. The format is cell-based, human. Particulars: 10 μM 25-OHC for 1 and 2. As to the method:
25-OHC (11) is a high-affinity ligand of OSBP1 and ORP4L that is not cytotoxic at concentrations up to 10 μM. Example 1 established that the ORPphilins compete with 25-OHC for binding to OSBP1 and ORP4L (FIG. 2D,E). Therefore, if OSBP1 and ORP4L mediate the biological activities of these compounds, co-administration of sub-lethal doses of 25-OHC with the ORPphilins should inhibit binding of the ORPphilins to OSBP1 and ORP4L, thereby desensitizing cells to the cytotoxic effects of the ORPphilins.

Setting [8] is: HCT-116, 48 h, read-out: GI50 (nM) 48 h p21^+/+.
[9] abbreviates: competition with 20 nM [3H]-25-OHC, HEK-293T S100 lysate, 4° C., 16 h.

One may read the Ki as a measure of affinity in units of concentration, obtained from inhibition or displacement.

Each structure is given as a SMILES string. Entries after “also recorded” stand apart in the source; their conditions may differ. Where two headings read alike, the source gives them in different places. Where a SMILES comes first, the peptide text is derived from it. The star is where a group is joined. Cbz = O=C(OCc1ccccc1)*

Regarding `C=CCOC(=O)NCc1ccc(CNC(=O)OC2C(O)COC(OC3C(O)COC(O[C@H]4C[C@H]5[C@@H]6CC=C7C[C@@H](O)CC[C@]7(C)C6CC[C@]5(C)[C@@]4(O)[C@H](C)C(=O)CCC(C)C)C3OC(C)=O)C2OC(=O)c2ccc(OC)cc2)cc1` (some centres unmarked) [Compound 6a], the inhibition constant Ki in data set [1] worked out at 18 ± 5 nM; in data set [3] it was 43 ± 9 nM. For the same compound, the results for the GI50 in data set [2], in data set [4] and in data set [5] (setting [8]) were 0.1 ± 0.04 nM, 0.08 ± 0.02 nM and 0.6 ± 0.13 nM, respectively. The “p21−/− selectivity of growth inhibition (HCT-116 p21−/− versus wt)” value in data set [4] (48 h) is given as “commensurate with that of 2”. Moreover, the “antiproliferative potency relative to 2” value in data set [5] is given as “maintained the antiproliferative potency of 2”.
With `C=CCOC(=O)NCc1ccc(CNC(=O)OC2COC(OC3C(O)COC(O[C@H]4C[C@H]5[C@@H]6CC=C7C[C@@H](O)CC[C@]7(C)C6CC[C@]5(C)[C@@]4(O)[C@H](C)C(=O)CCC(C)C)C3OC(C)=O)C(OC(=O)c3ccc(OC)cc3)C2O)cc1` (some centres unmarked) [Compound 6c], the Ki in data set [1] was 46 ± 11 nM; in data set [3], 150 ± 50 nM. In addition, the GI50 in data set [2] was found to be 2.9 ± 0.9 nM; in data set [4], 2.2 ± 0.5 nM; in data set [5] (setting [8]), 17 ± 4 nM.
On the same counts, the results for `CC(=O)OC1C(O[C@H]2C[C@H]3[C@@H]4CC=C5C[C@@H](O)CC[C@]5(C)C4CC[C@]3(C)[C@@]2(O)[C@H](C)C(=O)CCC(C)C)OCC(O)C1OC1OCC(O)C(O)C1O` (some centres unmarked) [Compound 7] are 63 ± 12 nM, 120 ± 31 nM, 41 ± 25 nM, 17 ± 2 nM and 120 ± 40 nM.
Regarding `CC(C)CCC(=O)[C@@H](C)[C@@]1(O)[C@@H](OC2OCC(O)C(OC3OCC(O)C(O)C3O)C2O)C[C@H]2[C@@H]3CC=C4C[C@@H](O)CC[C@]4(C)C3CC[C@@]21C` (some centres unmarked) [Compound 8], the Ki in data set [1] worked out at 170 ± 7 nM; in data set [3], 760 ± 200 nM. For the same compound, the GI50 came out at 570 ± 250 nM in data set [2], 220 ± 60 nM in data set [4] and 1400 ± 400 nM in data set [5] (setting [8]).
`COc1ccc(C(=O)OC2C(OC3C(O)COC(O[C@H]4C[C@H]5[C@@H]6CC=C7C[C@@H](O[Si](C)(C)C(C)(C)C)CC[C@]7(C)C6CC[C@]5(C)[C@@]4(O)[C@H](C)C(=O)CCC(C)C)C3OC(C)=O)OCC(O)C2O)cc1` (some centres unmarked) [Compound 108, 3-(tert-Butyldimethylsilyl)-OSW-1]: in data set [1] (setting [9]), the “[^3H]-25-OHC K1 (nM) OSBP1-myc-his” value was “None detected”. Also, the “competition with [3H]-25-OHC for binding to OSBP1” value in data set [1] (listed as 9) is “did not compete; also recorded: does not bind”. In addition, the “fold less cytotoxic than 2 in A549 cells” value in data set [2] was determined as 700 fold. Besides, the GI50 stood at 1600 ± 500 nM in data set [2]; 720 ± 90 nM in data set [4]; 2300 ± 200 nM in data set [5] (setting [8]); 2300 nM in data set [5] (HCT-116, read-out: GI50 in HCT-116 cells). In addition, the “[^3H]-25-OHC K1 (nM) ORP4L-myc-his” value in data set [3] (setting [9]) is “None detected”. In addition, the “competition with [3H]-25-OHC for binding to ORP4L” value in data set [3] (listed as 9) was “did not compete; also recorded: does not bind”. In addition, the “fold less cytotoxic than 2 in HCT-116 p21−/− cells” value in data set [4] is on record as 2100 fold. Moreover, the “fold less active than OSW-1 (2) in HCT-116 cells” value in data set [5] is listed as “ca. 1,400 fold”.
As for `CC(C)C[C@@H](C=O)NC(=O)[C@H](CC(C)C)NC(=O)[C@H](CC(C)C)NC(=O)OCc1ccccc1` [MG-132] (Cbz-Leu-Leu-Leu-aldehyde), in data set [6], the “block of OSBP1 degradation by 1 and 2” value is “completely blocked”; the “effect on OSBP1 levels, compound alone” value is on record as “did not affect”.
With `C[C@H]1CCC/C=C/[C@@H]2C[C@H](O)C[C@H]2[C@H](O)/C=C/C(=O)O1` [brefeldin A], in data set [7], the “effect of 25-OHC co-administration on the antiproliferative activity” value is “did not affect”.
As to `CC(=O)N[C@@H](CSC(=O)[C@]1([C@@H](O)C(C)C)NC(=O)[C@H](C)[C@@H]1O)C(=O)O` [lactacystin], in data set [6], the “block of OSBP1 degradation by 1 and 2” value is reported as “completely blocked”; the “effect on OSBP1 levels, compound alone” value is reported as “did not affect”.
